According to patent publication US10294202B2, “Pyrrolidinones as herbicides” (FMC Corporation, priority 2013, dated 2019):

How the values were obtained:
[1] = test system: oat, wild; test: Test C pre-/postemergence herbicide test; format: in vivo, Avena fatua; conditions: Postemergence
In short: (§1)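 Greenhouse plants scored visually against untreated controls 13–15 days after treatment, 0 = no effect, 100 = complete control. Test chemicals in a non-phytotoxic solvent with surfactant were applied either to soil (loam/sand) at planting or to foliage of 1- to 4-leaf plants, 2–18 cm tall.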

[2] = test system: ducksalad; test: Test B flooded paddy test; format: in vivo, Heteranthera limosa; conditions: 500 g ai/ha, Flood; scale of 0 to 100 where 0 is no effect and 100 is complete control
In short: (§2)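 Plants grown to 2-leaf stage; pots flooded 3 cm above soil and compound applied directly into paddy water, depth held throughout. Visual rating against untreated controls after 13 to 15 days in greenhouse, 0 (no effect) to 100 (complete control).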

[3] = test system: pigweed; test: Test A pre-/postemergence herbicide test; format: in vivo, Amaranthus retroflexus
In short: (§3)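 Visual 0–100 ratings (100 = complete control) made about 10 days after treatment, greenhouse-held plants compared with untreated controls. Treatments: postemergence sprays on one- to two-leaf plants (2–10 cm tall) and preemergence directed soil sprays after planting in loam–sand, chemicals formulated in non-phytotoxic solvent containing surfactant.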

[4] = test system: waterhemp; test: Test C pre-/postemergence herbicide test; format: in vivo, Amaranthus rudis
In short: as §1

[5] = test system: barnyardgrass; test: Test A pre-/postemergence herbicide test; format: in vivo, Echinochloa crus-galli
In short: as §3

[6] = test system: nutsedge, yellow; test: Test C pre-/postemergence herbicide test; format: in vivo, Cyperus esculentus
In short: as §1

[7] = test system: barnyardgrass; test: Test B flooded paddy test; format: in vivo, Echinochloa crus-galli; conditions: 500 g ai/ha, Flood; scale of 0 to 100 where 0 is no effect and 100 is complete control
In short: as §2

[8] = test system: ryegrass, Italian; test: Test C pre-/postemergence herbicide test; format: in vivo, Lolium multiflorum
In short: as §1

[9] = test system: rice; test: Test B flooded paddy test; format: in vivo, Oryza sativa; conditions: 500 g ai/ha, Flood; scale of 0 to 100 where 0 is no effect and 100 is complete control
In short: as §2

[10] = test system: barnyardgrass; test: Test C pre-/postemergence herbicide test; format: in vivo, Echinochloa crus-galli
In short: as §1

[11] = test system: morningglory; test: Test C pre-/postemergence herbicide test; format: in vivo, Ipomoea coccinea
In short: as §1

[12] = test system: soybean; test: Test C pre-/postemergence herbicide test; format: in vivo, Glycine max
In short: as §1

[13] = 31 g ai/ha, scale 0 to 100 (0 no effect, 100 complete control)
[14] = 62 g ai/ha, scale 0 (no effect) to 100 (complete control)
[15] = 125 g ai/ha, scale 0 to 100 (0 no effect, 100 complete control)
[16] = 250 g ai/ha, scale 0 to 100 (0 no effect, 100 complete control)
[17] = Postemergence, 125 g ai/ha, visual rating on 0 to 100 scale (0 no effect, 100 complete control), approx. 10 days
[18] = Postemergence, 500 g ai/ha, 0 to 100 scale (0 no effect, 100 complete control)
[19] = Preemergence, 125 g ai/ha, 0 to 100 scale where 0 is no effect and 100 is complete control
[20] = Preemergence, 500 g ai/ha, visual rating on 0 to 100 scale (0 no effect, 100 complete control)
[21] = Postemergence, 31 g ai/ha, scale 0 to 100 (0 no effect, 100 complete control)
[22] = Postemergence, 62 g ai/ha, scale 0 (no effect) to 100 (complete control)
[23] = Postemergence, 125 g ai/ha, scale 0 to 100 (0 no effect, 100 complete control)
[24] = Postemergence, 250 g ai/ha, scale 0 to 100 (0 no effect, 100 complete control)
[25] = Preemergence, 62 g ai/ha, scale 0 to 100 (0 no effect, 100 complete control)
[26] = Preemergence, 125 g ai/ha, scale 0 to 100 (0 no effect, 100 complete control)
[27] = Preemergence, 31 g ai/ha, scale 0 to 100, 0 is no effect and 100 is complete control
[28] = Preemergence, 125 g ai/ha, scale 0 to 100

CN1CC(c2ccc(C(F)(F)F)cc2)C(C(=O)Nc2cccc(F)c2F)C1=O (centres unmarked) [Compound 306]
Plant response rating, Oat, Wild [1, 13]: 0
Plant response rating, Oat, Wild [1, 14]: 0
Plant response rating, Oat, Wild [1, 15]: 0
Plant response rating, Oat, Wild [1, 16]: 5
Plant response rating, Ducksalad [2]: 100
Plant response rating, Pigweed [3, 17]: 70
Plant response rating, Pigweed [3, 18]: 80
Plant response rating, Pigweed [3, 19]: 80
Pigweed plant response rating [3, 20]: 90
Plant response rating, Waterhemp [4, 21]: 65
Plant response rating, Waterhemp [4, 22]: 65
Plant response rating, Waterhemp [4, 23]: 80
Plant response rating, Waterhemp [4, 24]: 80
Waterhemp plant response rating [4, 25]: 85
Plant response rating, Waterhemp [4, 26]: 85
Plant response rating (scale of 0 to 100), Waterhemp ([4]; Preemergence, 250 g ai/ha): 90
Plant response rating, Barnyardgrass [5, 17]: 80
Plant response rating, Barnyardgrass [5, 18]: 80
Plant response rating, Barnyardgrass [5, 19]: 90
Barnyardgrass plant response rating [5, 20]: 90
Plant response rating, Nutsedge, Yellow [6, 21]: 0
Plant response rating, Nutsedge, Yellow [6, 22]: 0
Plant response rating, Nutsedge, Yellow [6, 24]: 0
Nutsedge, Yellow plant response rating [6, 27]: 0
Nutsedge, Yellow plant response rating [6, 25]: 0
Plant response rating, Nutsedge, Yellow [6, 26]: 0
Plant response rating (scale of 0 to 100), Nutsedge, Yellow ([6]; Preemergence, 250 g ai/ha): 10
Plant response rating, Barnyardgrass [7]: 75
Plant response rating, Ryegrass, Italian [8, 21]: 0
Plant response rating, Ryegrass, Italian [8, 22]: 0
Plant response rating, Ryegrass, Italian [8, 23]: 5
Plant response rating, Ryegrass, Italian [8, 24]: 20
Ryegrass, Italian plant response rating [8, 25]: 40
Plant response rating, Ryegrass, Italian [8, 26]: 55
Plant response rating (scale of 0 to 100), Ryegrass, Italian ([8]; Preemergence, 250 g ai/ha): 70
Plant response rating, Rice [9]: 50
Plant response rating, Barnyardgrass [10, 21]: 0
Plant response rating, Barnyardgrass [10, 22]: 45
Plant response rating, Barnyardgrass [10, 23]: 85
Plant response rating, Barnyardgrass [10, 24]: 85
Barnyardgrass plant response rating [10, 27]: 90
Barnyardgrass plant response rating [10, 25]: 90
Plant response rating, Barnyardgrass [10, 26]: 90
Plant response rating (scale of 0 to 100; 0 is no effect, 100 is complete control), Barnyardgrass ([10]; Preemergence, 250 g ai/ha): 95
Plant response rating, Morningglory [11, 21]: 0
Plant response rating, Morningglory [11, 22]: 35
Plant response rating, Morningglory [11, 23]: 65
Plant response rating, Morningglory [11, 24]: 5
Morningglory plant response rating [11, 27]: 0
Morningglory plant response rating [11, 25]: 35
Plant response rating, Morningglory [11, 26]: 35
Plant response rating (scale of 0 to 100), Morningglory ([11]; Preemergence, 250 g ai/ha): 35
Plant response rating, Soybean [12, 21]: 0
Plant response rating, Soybean [12, 22]: 5
Plant response rating, Soybean [12, 23]: 5
Plant response rating, Soybean [12, 24]: 5
Soybean plant response rating [12, 25]: 0
Plant response rating, Soybean [12, 26]: 0
Plant response rating (scale of 0 to 100), Soybean ([12]; Preemergence, 250 g ai/ha): 0

O=C1NCC(c2cccc(Br)c2)C1C(=O)Nc1ccc(F)c(F)c1F (centres unmarked) [Compound 310]
Plant response rating, Oat, Wild [1, 13]: 0
Plant response rating, Oat, Wild [1, 14]: 0
Plant response rating, Oat, Wild [1, 15]: 0
Plant response rating, Oat, Wild [1, 16]: 0
Plant response rating, Ducksalad [2]: 100
Plant response rating, Pigweed [3, 17]: 0
Plant response rating, Pigweed [3, 18]: 0
Plant response rating, Pigweed [3, 19]: 40
Pigweed plant response rating [3, 20]: 40
Plant response rating, Waterhemp [4, 21]: 5
Plant response rating, Waterhemp [4, 22]: 10
Plant response rating, Waterhemp [4, 23]: 10
Plant response rating, Waterhemp [4, 24]: 10
Waterhemp plant response rating [4, 25]: 0
Plant response rating, Waterhemp [4, 28]: 25
Plant response rating (scale of 0 to 100), Waterhemp ([4]; Preemergence, 250 g ai/ha): 25
Plant response rating, Barnyardgrass [5, 17]: 90
Plant response rating, Barnyardgrass [5, 18]: 90
Plant response rating, Barnyardgrass [5, 19]: 90
Barnyardgrass plant response rating [5, 20]: 90
Plant response rating, Nutsedge, Yellow [6, 21]: 0
Plant response rating, Nutsedge, Yellow [6, 22]: 0
Plant response rating, Nutsedge, Yellow [6, 23]: 0
Plant response rating, Nutsedge, Yellow [6, 24]: 25
Nutsedge, Yellow plant response rating [6, 27]: 0
Nutsedge, Yellow plant response rating [6, 25]: 0
Plant response rating, Nutsedge, Yellow [6, 28]: 0
Plant response rating (scale of 0 to 100), Nutsedge, Yellow ([6]; Preemergence, 250 g ai/ha): 0
Plant response rating, Barnyardgrass [7]: 60
Plant response rating, Ryegrass, Italian [8, 21]: 0
Plant response rating, Ryegrass, Italian [8, 22]: 0
Plant response rating, Ryegrass, Italian [8, 23]: 0
Plant response rating, Ryegrass, Italian [8, 24]: 5
Ryegrass, Italian plant response rating [8, 25]: 0
Plant response rating, Ryegrass, Italian [8, 28]: 20
Plant response rating (scale of 0 to 100), Ryegrass, Italian ([8]; Preemergence, 250 g ai/ha): 25
Plant response rating, Rice [9]: 0
Plant response rating, Barnyardgrass [10, 21]: 5
Plant response rating, Barnyardgrass [10, 22]: 25
Plant response rating, Barnyardgrass [10, 23]: 50
Plant response rating, Barnyardgrass [10, 24]: 75
Barnyardgrass plant response rating [10, 27]: 50
Barnyardgrass plant response rating [10, 25]: 90
Plant response rating, Barnyardgrass [10, 26]: 90
Plant response rating (scale of 0 to 100; 0 is no effect, 100 is complete control), Barnyardgrass ([10]; Preemergence, 250 g ai/ha): 95
Plant response rating, Morningglory [11, 21]: 10
Plant response rating, Morningglory [11, 22]: 0
Plant response rating, Morningglory [11, 23]: 10
Plant response rating, Morningglory [11, 24]: 70
Morningglory plant response rating [11, 27]: 0
Morningglory plant response rating [11, 25]: 0
Plant response rating, Morningglory [11, 28]: 5
Plant response rating (scale of 0 to 100), Morningglory ([11]; Preemergence, 250 g ai/ha): 5
Plant response rating, Soybean [12, 21]: 10
Plant response rating, Soybean [12, 22]: 10
Plant response rating, Soybean [12, 23]: 0
Plant response rating, Soybean [12, 24]: 0
Soybean plant response rating [12, 25]: 0
Plant response rating, Soybean [12, 28]: 0
Plant response rating (scale of 0 to 100), Soybean ([12]; Preemergence, 250 g ai/ha): 0
